Source: PMC10421868, “The acquisition order of leukemic drug resistance mutations is directed by the selective fitness associated with each resistance mechanism” (Scientific Reports, 2023)

What was measured:
[1] = test system: Chronic Myeloid Leukemia patients; conditions: CML patients; cited from earlier work
K562 and K562 DasR cells = assay: Intracellular uptake and retention (IUR) assay; format: in vitro ADME; conditions: 2 μM C14-dasatinib, 2 h, 37 °C
Procedure: To determine the quantity of intracellular dasatinib in leukemic cells, and the dasatinib transport functionality of ABCG2, the intracellular uptake and retention (IUR) assay was performed as previously described. K562 and K562 DasR cells were washed and incubated with 0 or 2 μM C^14-dasatinib kindly provided by Bristol Myers Squibb (New York, NY), in the presence or absence of 0.5 μM Ko143. This was performed using 2 × 10^5 cells in 2 mL of RPMI-1640 + 10% FCS, for 2 h at 37 °C. Following incubation, cells were pelleted by centrifugation for 5 min at 6800 rpm then 30 s at 13,000 rpm. Radioactivity of C^14-dasatinib was determined independently in the supernatant and cell pellet using a Tri-Carb 2810R Liquid Scintillation Counter (Perkin Elmer, Inc., Waltham, MA). The IUR was reported as ng of dasatinib incorporated per 200,000 cells. Results are expressed as paired –/ + Ko143 samples.

[2] = biological target: BCR::ABL1 kinase activity (Homo sapiens, UniProt P00519+P11274)
BCR::ABL1 kinase activity, sequence (P11274+P00519 fused): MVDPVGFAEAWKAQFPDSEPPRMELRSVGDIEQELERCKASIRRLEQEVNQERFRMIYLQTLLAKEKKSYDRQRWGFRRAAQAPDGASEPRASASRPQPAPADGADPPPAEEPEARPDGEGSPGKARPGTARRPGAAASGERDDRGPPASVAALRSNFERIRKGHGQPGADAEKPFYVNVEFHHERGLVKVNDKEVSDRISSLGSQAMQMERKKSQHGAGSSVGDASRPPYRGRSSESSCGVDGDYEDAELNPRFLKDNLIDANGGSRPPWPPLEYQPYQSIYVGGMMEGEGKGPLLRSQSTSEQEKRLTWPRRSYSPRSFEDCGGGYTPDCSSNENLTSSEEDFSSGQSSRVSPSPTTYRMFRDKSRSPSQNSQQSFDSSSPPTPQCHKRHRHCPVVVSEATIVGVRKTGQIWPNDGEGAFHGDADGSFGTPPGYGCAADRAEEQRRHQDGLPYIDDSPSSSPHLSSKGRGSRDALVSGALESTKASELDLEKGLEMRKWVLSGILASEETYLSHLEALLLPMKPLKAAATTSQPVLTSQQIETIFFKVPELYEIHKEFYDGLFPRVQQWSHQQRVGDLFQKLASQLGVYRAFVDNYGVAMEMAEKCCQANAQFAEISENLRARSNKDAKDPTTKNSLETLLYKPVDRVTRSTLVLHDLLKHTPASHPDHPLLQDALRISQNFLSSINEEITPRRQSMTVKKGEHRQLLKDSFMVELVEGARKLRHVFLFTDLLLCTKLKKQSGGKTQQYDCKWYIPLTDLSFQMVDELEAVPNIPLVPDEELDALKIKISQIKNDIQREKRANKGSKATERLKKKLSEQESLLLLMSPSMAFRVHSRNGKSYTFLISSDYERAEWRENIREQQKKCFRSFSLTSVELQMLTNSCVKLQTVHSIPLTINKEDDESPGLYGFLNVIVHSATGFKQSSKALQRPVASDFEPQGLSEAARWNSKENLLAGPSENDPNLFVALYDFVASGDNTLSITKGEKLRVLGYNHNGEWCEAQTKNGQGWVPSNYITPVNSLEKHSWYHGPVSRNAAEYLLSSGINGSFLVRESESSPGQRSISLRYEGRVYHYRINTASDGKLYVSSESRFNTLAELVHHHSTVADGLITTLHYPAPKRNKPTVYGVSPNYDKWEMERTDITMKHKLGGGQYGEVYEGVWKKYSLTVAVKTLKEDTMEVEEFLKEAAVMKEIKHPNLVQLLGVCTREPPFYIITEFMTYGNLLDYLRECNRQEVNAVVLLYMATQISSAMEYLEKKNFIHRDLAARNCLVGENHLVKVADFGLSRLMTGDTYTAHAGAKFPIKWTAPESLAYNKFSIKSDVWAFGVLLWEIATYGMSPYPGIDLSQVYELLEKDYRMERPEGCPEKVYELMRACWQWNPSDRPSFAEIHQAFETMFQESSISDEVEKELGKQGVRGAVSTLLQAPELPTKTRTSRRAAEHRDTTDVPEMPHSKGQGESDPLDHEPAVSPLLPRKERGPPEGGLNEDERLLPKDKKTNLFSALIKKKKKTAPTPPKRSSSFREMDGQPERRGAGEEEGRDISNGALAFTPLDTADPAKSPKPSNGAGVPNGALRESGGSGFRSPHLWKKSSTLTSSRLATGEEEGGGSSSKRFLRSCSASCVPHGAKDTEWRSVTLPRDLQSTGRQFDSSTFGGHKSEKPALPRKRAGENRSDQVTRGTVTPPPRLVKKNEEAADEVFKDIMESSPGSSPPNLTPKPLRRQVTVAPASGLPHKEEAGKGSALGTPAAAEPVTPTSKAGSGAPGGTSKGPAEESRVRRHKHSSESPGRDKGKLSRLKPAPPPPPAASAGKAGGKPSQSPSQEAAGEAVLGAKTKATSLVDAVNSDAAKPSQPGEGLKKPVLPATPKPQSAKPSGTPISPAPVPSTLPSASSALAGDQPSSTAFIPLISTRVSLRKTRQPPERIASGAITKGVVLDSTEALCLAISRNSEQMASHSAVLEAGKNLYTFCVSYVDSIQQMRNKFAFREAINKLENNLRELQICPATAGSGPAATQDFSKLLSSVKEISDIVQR
Procedure: Western blotting for phosphorylated CT10 regulator of kinase-like (p-CrkL) was performed as previously described.

Cc1ccc(NC(=O)c2ccc(CN3CCN(C)CC3)cc2)cc1Nc1nccc(-c2cccnc2)n1 [imatinib]
10 year survival rate [1]: over 83% | Suboptimal response, share of treated patients [1]: 10–15%

COc1cc(Nc2c(C#N)cnc3cc(OCCCN4CCN(C)CC4)c(OC)cc23)c(Cl)cc1Cl [bosutinib]
Suboptimal response, share of treated patients [1]: < 10%

Cc1nc(Nc2ncc(C(=O)Nc3c(C)cccc3Cl)s2)cc(N2CCN(CCO)CC2)n1 [dasatinib]
Intracellular dasatinib (IUR) (K562 and K562 DasR cells; K562 15 nM DasR cells, with 0.5 μM Ko143): 19.39 ng/200,000 cells | Dasatinib uptake (IUR) (K562 and K562 DasR cells; K562 15 nM DasR cells, without Ko143): 12.15 ng/200,000 cells | Dasatinib uptake (IUR) (K562 and K562 DasR cells; K562 control, with 0.5 μM Ko143): 22.07 ng/200,000 cells | Dasatinib uptake (IUR) (K562 and K562 DasR cells; K562 control, without Ko143): 24.56 ng/200,000 cells | Suboptimal response, share of treated patients [1]: < 10%

Cc1cn(-c2cc(NC(=O)c3ccc(C)c(Nc4nccc(-c5cccnc5)n4)c3)cc(C(F)(F)F)c2)cn1 [nilotinib]
Suboptimal response, share of treated patients [1]: < 10%

COc1ccc2c3c([nH]c2c1)[C@H](CC(C)C)N1C(=O)[C@H](CCC(=O)OC(C)(C)C)NC(=O)[C@@H]1C3 [Ko143]
Effect of addition of Ko143 on dasatinib IC50 ([2]; K562 25, 50 and 200 nM DasR lines): no effect | Effect of Ko143 on ponatinib IC50 ([2]; K562 later stage DasR intermediates with lower ABCG2 expression, and DMSO control line): no significant change
